Source: paper PMC12754617, “Ruthenium-enhanced curcumin derivatives target tumor growth and cancer-related inflammation in head and neck cancer models” (Frontiers in Oncology, 2025)
In brackets after ≈: the same amount, converted by molar mass.

Columns and labels:
THP1-Blue NF-κB cells = experiment: MTT viability assay of THP1-Blue NF-κB cells; assay type: cell-based; settings: concentrations of the NF-κB activity assay, overnight
Method: A total of 20 μL of sterile filtered MTT (Sigma-Aldrich, Merck, Germany) solution (5 mg/mL in PBS) was added to the remaining overnight culture of THP1-Blue NF-κB cells from the above NF-κB activity assay in 96-well plates, which were incubated at 37°C (see above). After 2 h of incubation at 37°C, the supernatant was removed, and the purple formazan product generated in the cells was dissolved by the addition of 100 μL of DMSO to each well. The plates were then gently shaken for 30 s at room temperature to dissolve the precipitates. The absorbance was measured at 570 nm using an […] 200 PRO microplate reader (TECAN, Switzerland) ([43]).

A549 cell line = system: A549 cell line; parameters: method as in PMID 32598409; settings: A549 cell line ref 33; cited from earlier work
FaDu cell line [1] = system: FaDu cell line; parameters: method as in PMID 25767602; settings: FaDu cell line ref 55; cited from earlier work
[2] = system: NF-κB in THP1-Blue NF-κB cells; experiment: NF-κB activity assay (SEAP reporter, LPS-induced); assay type: cell-based; settings: 20 μM, LPS 10 ng/mL
Method: THP1-Blue NF-κB cells, NF-κB secreted embryonic alkaline phosphatase (SEAP) reporter monocytes (InvivoGen, USA), were assayed after 20–24 h of incubation following the manufacturer’s protocol. Briefly, cells were seeded at 1 × 10^6 cells/mL in RPMI medium in 96-well plates (180 μL) and treated with complex 3 or 4, Lipopolysaccharide (LPS) (10 ng/mL; […] The next day, NF-κB activation was assessed via the secretion of SEAP. Supernatants (20 μL) were transferred to 96-well plates, and 180 μL of Quanti-Blue was added. Plates were incubated for 2 h at 37°C, and absorbance was measured at 600 nm using an […] 200 PRO microplate reader (TECAN, Switzerland).

Hep-2 cell line [3] = settings: Hep-2 cell line ref 56; cited from earlier work
Hep-2 cell line [4] = system: Hep-2 cell line; parameters: method as in PMID 23513724; settings: HPV-positive Hep-2 cell line ref 52; cited from earlier work
KB cell line = system: KB cell line; parameters: method as in PMID 36278627; settings: 48 h of treatment ref 53; cited from earlier work
CAL 27 cell line [5] = system: CAL 27 cell line; parameters: method as in PMID 32099333, PMID 25767602; settings: CAL 27 cell line ref 47, 55; cited from earlier work
IKKβ = molecular target: T1, IKKβ (Homo sapiens, UniProt O14920); experiment: IKKβ inhibition assay (IKKβ Kinase Assay Kit); assay type: biochemical; settings: fivefold higher concentration than 1 μM
T1 construct: purchased BPS Bioscience
T1 sequence (O14920 1-756): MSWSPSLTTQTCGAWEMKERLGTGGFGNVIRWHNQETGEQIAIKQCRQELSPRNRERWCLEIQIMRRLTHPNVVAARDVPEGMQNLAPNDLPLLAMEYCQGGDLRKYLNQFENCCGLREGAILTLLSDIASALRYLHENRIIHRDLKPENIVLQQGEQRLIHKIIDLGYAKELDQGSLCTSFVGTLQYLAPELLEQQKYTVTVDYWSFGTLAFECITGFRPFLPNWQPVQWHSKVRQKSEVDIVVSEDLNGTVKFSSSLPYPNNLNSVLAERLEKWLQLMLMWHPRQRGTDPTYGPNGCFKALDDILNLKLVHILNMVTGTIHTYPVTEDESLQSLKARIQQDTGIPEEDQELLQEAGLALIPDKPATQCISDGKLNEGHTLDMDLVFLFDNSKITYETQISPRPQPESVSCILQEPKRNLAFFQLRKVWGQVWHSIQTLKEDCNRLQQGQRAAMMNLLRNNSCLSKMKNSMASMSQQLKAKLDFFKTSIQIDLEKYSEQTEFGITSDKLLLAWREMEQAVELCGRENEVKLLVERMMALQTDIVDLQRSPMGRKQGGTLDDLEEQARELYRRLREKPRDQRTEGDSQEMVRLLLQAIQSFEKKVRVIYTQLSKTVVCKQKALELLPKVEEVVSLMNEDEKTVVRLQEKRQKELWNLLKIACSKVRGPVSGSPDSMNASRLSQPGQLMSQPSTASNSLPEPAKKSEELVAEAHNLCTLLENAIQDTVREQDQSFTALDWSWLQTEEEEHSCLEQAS
Method: IκB kinase beta (IKKβ) inhibition was determined using the IKKβ Kinase Assay Kit (BPS Bioscience, San Diego, California, USA). […] Kinase-Glo® MAX (Promega, #V6071, Madison, Wisconsin, USA) was used as the detection reagent, with an incubation time of 15 min. Blank values were subtracted from all measurements. Luminescence was measured with an integration time of 1 s using a Spark Microplate Reader (Tecan, Switzerland).

HGF = system: HGF; parameters: method as in PMID 34657625; settings: concentration range 0.1–20 μM ref 54; cited from earlier work
FaDu cell line [6] = system: FaDu cell line; parameters: method as in PMID 32628350; settings: FaDu cell line ref 48; cited from earlier work
SCC-9 cell line [7] = system: SCC-9 cell line; parameters: method as in PMID 25450696; settings: SCC-9 cell line ref 49; cited from earlier work
OSCC cells = system: OSCC cells; parameters: method as in PMID 32391111; settings: Ohnishi et al. ref 57; cited from earlier work
SCC-9 cell line [8] = system: SCC-9 cell line; parameters: method as in PMID 32628350, PMID 25450696; settings: SCC-9 cell line ref 48, 49; cited from earlier work
Detroit 562 cell line = system: Detroit 562 cell line; parameters: method as in PMID 32121279, PMID 19317462; settings: Detroit 562 cell line ref 50, 51; cited from earlier work
CAL 27 cell line [9] = system: CAL 27 cell line; parameters: method as in PMID 32060973, PMID 32099333; settings: CAL 27 cell line ref 46, 47; cited from earlier work
CAL 27 cell line [10] = settings: cited from earlier work

In the case of COc1cc(/C=C/C(=O)CC(=O)/C=C/c2ccc(O)c(OC)c2)ccc1O [Curcumin, curcumin], the “Cytotoxicity in THP1-Blue NF-κB cells (MTT)” value (THP1-Blue NF-κB cells) is listed as “Neither complex 3, complex 4, nor curcumin exhibited significant cytotoxicity”, the IC50 (A549 cell line) is listed as 13.1 µM and the “Concentration suppressing colony formation” value (FaDu cell line [1]) is listed as 12.5 µM. For the same molecule, the “Reduction of LPS-induced NF-κB activation” value [2] was “approximately 60%”, the “Concentration with significant inhibition of colony formation and cell migration” value (Hep-2 cell line [3]) was 20 µM and the IC50 (Hep-2 cell line [4]) was roughly 50 µM. For the same molecule, the IC50 (KB cell line) was 8.84 µg/mL (≈ 24 µM), the “Concentration inhibiting colony formation” value (CAL 27 cell line [5]) was no less than 12.5 µM and the “Inhibition of IKKβ activity” value (IKKβ) was “approximately 30%”. The “Effect on cell viability” value (HGF) was “did not significantly affect cell viability”, the IC50 (FaDu cell line [6]) was 24.8 µM and the “Concentration suppressing colony formation” value (SCC-9 cell line [7]) was 40 µM. The Concentration inhibiting migration (OSCC cells) was 15 µM, the IC50 (SCC-9 cell line [8]) was 40.9 µM and the Concentration showing cytotoxicity (Detroit 562 cell line) was “around 20 μM”. The IC50 (CAL 27 cell line [9]) was 49.9 µM, the “Concentration reducing cell migratory capacity” value (CAL 27 cell line [10]; CAL 27 cell line ref 47, 55) was 50 µM and the “Concentration significantly inhibiting migration” value (CAL 27 cell line [10]; CAL 27 cells, Ma et al. ref 47) was 100 µM.
